Tests used:
[1] = Inhibition of human dUTPase-mediated cell proliferation in HeLa S3 cells assessed as compound concentration required to reduce 50% of 1 uM of FdUrd T/C after 24 hrs by crystal violet staining
[2] = Inhibition of human dUTPase-mediated cell proliferation in HeLa S3 cells after 72 hrs by crystal violet staining

EC50 [1]	IC50 [2]	Structure (SMILES)
66 nM	38200 nM	C[C@@H](NS(=O)(=O)CC/C=C/Cn1ccc(=O)[nH]c1=O)c1cccc(OCC2CC2)c1
2600 nM		CC(C)(CC/C=C/Cn1ccc(=O)[nH]c1=O)NS(=O)(=O)c1ccccc1
120 nM		CC(C)(NS(=O)(=O)c1cccc(OC2CCCC2)c1)c1ccc(Cn2ccc(=O)[nH]c2=O)cc1
5100 nM		CC(C)(CCCOCn1ccc(=O)[nH]c1=O)NS(=O)(=O)c1ccccc1
140 nM		CC(C)(NS(=O)(=O)c1cccc(OCC2CC2)c1)c1ccc(Cn2ccc(=O)[nH]c2=O)cc1
930 nM		C[C@@H](NS(=O)(=O)c1ccc(Cn2ccc(=O)[nH]c2=O)cc1)c1cccc(OCC2CC2)c1
610 nM		C[C@@H](NS(=O)(=O)c1ccc(Cn2ccc(=O)[nH]c2=O)cc1)c1cccc(OCC(F)F)c1
100 nM		CC(C)(NS(=O)(=O)c1cccc(OCC(F)F)c1)c1ccc(Cn2ccc(=O)[nH]c2=O)cc1
2600 nM		CC(C)(NS(=O)(=O)c1ccccc1)c1ccc(Cn2ccc(=O)[nH]c2=O)cc1
3130 nM		COc1cccc(S(=O)(=O)NC(C)(C)c2ccc(Cn3ccc(=O)[nH]c3=O)cc2)c1
450 nM		COc1cccc(S(=O)(=O)NC(C)(C)CC/C=C/Cn2ccc(=O)[nH]c2=O)c1
96 nM		C[C@@H](NS(=O)(=O)CC/C=C/Cn1ccc(=O)[nH]c1=O)c1cccc(OCC(F)F)c1
610 nM		C[C@@H](NS(=O)(=O)c1ccc(Cn2ccc(=O)[nH]c2=O)cc1)c1cccc(OC2CCCC2)c1
150 nM		C[C@@H](NS(=O)(=O)CC/C=C/Cn1ccc(=O)[nH]c1=O)c1cccc(OC2CCCC2)c1
49 nM		CC(C)(CC/C=C/Cn1ccc(=O)[nH]c1=O)NS(=O)(=O)c1cccc(OCC(F)F)c1
200 nM		CC(C)(CC/C=C/Cn1ccc(=O)[nH]c1=O)NS(=O)(=O)c1cccc(OC2CCCC2)c1
